Literature values, collected in US8765197B2, “Extract of herbal and composition containing the same” (Dong-A-Pharm, Co., Ltd., priority 2006, dated 2014).

Test system: functional dyspepsia

For `COc1cc(N)c(Cl)cc1C(=O)NC1CCN(CCCOc2ccc(F)cc2)CC1OC` (centres unmarked) [cisapride], the “cases in which effective” value (administered for 4 to 8 weeks) is listed as “more than 70%” and the response rate (functional dyspepsia, placebo 27-53%) is listed as 50-82%.
